The source of these data is patent US11325906B2, “Chemical compounds” (AstraZeneca AB, priority 2019, dated 2022).

The test system of assay [1] is DLD1 cells. As to the kind of experiment: PARP proliferation assay (4 day compound dosing), WT DLD1. The format is cell-based. The conditions noted are these: Homo sapiens, 96 h, WT DLD-1 cells, read-out: WT DLD-1 prolif 4 d IC50.
In assay [2] the test system is BRCA2 (−/−) DLD1 cells. As to the kind of experiment: PARP proliferation assay (4 day compound dosing), BRCA2 (−/−) DLD1. The format is cell-based. The following applies: Homo sapiens, 96 h, BRCA2 −/− DLD-1 cells, read-out: BRCA2 −/− DLD-1 prolif 4 d IC50.

`CCc1cc2ncc(CN3CCN(c4ccc(C(=O)NC)nc4C)CC3)cc2[nH]c1=O` [Example 31, 5-[4-[(7-ethyl-6-oxo-5H-1,5-naphthyridin-3-yl)methyl]piperazin-1-yl]-N,6-dimethyl-pyridine-2-carboxamide]: the IC50 in assay [1] is more than 30000 nM; in assay [2] it was 4 nM.
